Experimental data reported in ChEMBL document CHEMBL1154512, “PA-824 kills nonreplicating Mycobacterium tuberculosis by intracellular NO release” (2008).
Calls of active or inactive are those of the source. The calls are words filed in the database; no cut-off is given here.

Tested on: Mycobacterium tuberculosis
Experiment: Bactericidal activity against Mycobacterium tuberculosis prcAB/tetR mutant after 3 days under anaerobic condition by serial dilution method
Type: functional, organism-based

With `O=[N+]([O-])c1cn2c(n1)OC[C@@H](OCc1ccc(OC(F)(F)F)cc1)C2` [PRETOMANID] the Activity was “Active”.
